{"source": "patent US20170216297A1", "about": "“EFFICIENT INHIBITION OF HSP27” (TECHNISCHE UNIVERSITAET DRESDEN, priority 2014, published 2017)", "key": {"[1]": {"system": "U937 cells", "experiment": "Development of resistance to bortezomib in U937 cells", "assay_type": "cell-based", "description": "For this purpose, U937 cells (histiocytic lymphoma) were cultured in DMEM culture medium (+10% FCS) at 37° C., 5% CO2 in an H2O-saturated atmosphere. 100,000 cells/ml were seeded and incubated with the cytostatic agent bortezomib (0.1 ng/ml) and the respective test substance (dosage in the current experiment: 1 μM/L acepromazine). The reference substance, BVDU, was employed at a concentration of 30 μM/L. The cells were in each case passaged before the cell count reached 1,000,000 cells/ml. At each passage, 100,000 cells/ml were again seeded and the dose of the cytostatic agent bortezomib was increased stepwise (0.1 ng/mL or 0.05 ng/mL). The concentration of the test substances remained constant. As a result of the stepwise increase in the dosage of the cytostatic agent, resistance developed in the U937 cells. The development of resistance is prevented or inhibited in the case of a positively tested HSP27 inhibitor. The experiments from Example 6 were repeated in the same way, wherein U937 cells (histiocytic lymphoma) are cultured in DMEM culture medium (+10% FCS) at 37° C., 5% CO2 in an H2O— saturated atmosphere. 100,000 cells/ml were seeded and incubated with an initial concentration of 0.2 ng/ml of the cytostatic agent bortezomib and both without an inhibitor and with acepromazine as an HSP27 inhibitor at a concentration of 1 μM/L. The reference substance, BVDU, was employed at a concentration of 30 μM/L. The cells were passaged in each case before the cell count reached 1,000,000 cells/ml. At each passage, 100,000 cells/ml were again seeded and the dose of the cytostatic agent bortezomib was increased stepwise by 0.1 ng/mL. The concentration of the test substance and the reference substance remained constant. As a result of the stepwise increase in the dosage of the cytostatic agent, resistance developed in the U937 cells. The development of resistance is prevented or inhibited in the case of a positively tested HSP27 inhibitor. The cell line U-937 is a histiocytic lymphoma (DSMZ ACC 5). This cell line also responds to treatment with bortezomib, expresses HSP27 and develops resistance to bortezomib. Bortezomib is not the standard therapy for this lymphoma, but is being discussed as a possible therapeutic agent. U-937 cells were seeded with a cell count of 100,000 cells/ml in each case and regularly passaged. […] At the end of the experiment, 70,000 living cells per ml medium could be detected. For the treatment with 30 μmol/L BVDU, a final cell count of 250,000 cells/ml was detected whereas the final cell count in the culture without the addition of an HSP27 inhibitor amounted to 450,000 cells/ml. As a control, U-937 cells were treated with the respective test substances alone, FIG. 10b."}, "[2]": {"target": "HSP27 (Homo sapiens, UniProt P04792)", "sequence (P04792 whole entry)": "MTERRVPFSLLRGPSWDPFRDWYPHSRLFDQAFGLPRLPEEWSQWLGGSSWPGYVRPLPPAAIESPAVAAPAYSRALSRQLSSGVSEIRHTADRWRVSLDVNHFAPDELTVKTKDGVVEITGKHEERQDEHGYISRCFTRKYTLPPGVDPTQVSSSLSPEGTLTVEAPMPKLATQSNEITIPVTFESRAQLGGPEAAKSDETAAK", "experiment": "Bio-layer interferometry (ForteBio Octet Red 384, biotinylated HSP27 on SSA sensors)", "assay_type": "binding", "conditions": "bio-layer interferometry; read-out: KD", "source_text": "Bio-layer interferometry is a technique for detecting biomolecular interactions. It is an analytical technique that measures the optical interference of white light which is reflected by two surfaces: in each case, one surface consists of a layer of the immobilized target protein on the tip of the biosensor and one is an internal reference surface. The binding of ligands to the target protein alters the interference pattern and can be measured in real time.\nFor the measurements, an instrument of the ForteBio Octet Red 384 brand was used. The target protein HSP27 was biotinylated and bound to the appropriate sensors (SSA). […] The purine derivatives of general formula (I) or (II) pre-identified by means of in silico screening are employed for these measurements in a concentration range (KD) of between 333 μmol/L and 10 nmol/L.\nFor measurements by bio-layer interferometry, biotinylated HSP27 protein was first bound to Super-Streptavidin sensors (SSA, Fortebio). The loaded sensors were then incubated (“quenched”) with biocytin. As reference, unloaded SSA sensors were incubated with biocytin. In the case of a specific binding to HSP27 of the analyte to be measured, the loaded HSP27 sensor generates a stronger signal (response) than the concurrent reference sensor. After the “baseline” has been established by incubation with the reaction buffer (PBST 0.1% Tween 20 plus 3% DMSO), first the association and then the dissociation of the respective analyte is measured in real time. The analytes were measured in increasing concentrations in each case: 1.23-3.7-11.11-33.33-100-300 μM/l."}}, "data": [{"compound": "CC(=O)c1ccc2c(c1)N(CCCN(C)C)c1ccccc1S2", "note": "[Acepromazine]", "values": [{"measurement": "living cells after the end of the experiment", "setting": "[1]; Example 6, FIG. 2: bortezomib 0.1 to 0.5 ng/ml stepwise, +1 μM inhibitor, without inhibitor 790,000 cells/ml", "result": "no living cells were detectable"}, {"measurement": "development of resistance to bortezomib", "setting": "[1]; Example 6, FIG. 2: bortezomib 0.1 to 0.5 ng/ml, +1 μM inhibitor", "result": "no development of resistance occurred"}, {"measurement": "living cells after the end of the experiment", "setting": "[1]; Example 7, FIG. 3: bortezomib 0.2 to 0.4 ng/ml stepwise, +1 μM inhibitor, without inhibitor 230,000 cells/ml", "result": "no living cells were detectable"}, {"measurement": "development of resistance to bortezomib", "setting": "[1]; Example 7, FIG. 3: bortezomib 0.2 to 0.4 ng/ml, +1 μM inhibitor", "result": "no development of resistance occurred"}, {"measurement": "development of resistance to bortezomib", "setting": "[1]; Examples 17/18: bortezomib 0.1-0.5 ng/ml, plus 0.75 μmol/L inhibitor", "result": "significantly inhibited"}, {"measurement": "Kd", "setting": "[2]", "result": 72, "unit": "µM"}]}]}
